Test results published in article PMC9106665 (Communications Biology, 2022).
Substitutions are numbered along the chain they refer to. ≈ marks a conversion by molar mass, not a printed value. Read-outs that look alike come from different tables or passages of the source.

What was measured:
[1] = system: NC(=O)C1=CN([C@H]2O[C@H](COP(=O)(O)OP(=O)(O)OC[C@H]3O[C@@H](n4cnc5c(N)ncnc54)[C@H](OP(=O)(O)O)[C@@H]3O)[C@@H](O)[C@H]2O)C=CC1; assay: purified protein, by the assay type; type: biochemical, E. coli; settings: other: varied substrate 1 to 200 µM, 25 °C
From the text: (§1) using a nonlinear regression method in GraphPad Prism 9.2.0 software. To determine the turnover number (kcat) using the same model, the enzyme concentration (based on the protein concentration determined by Bradford assay) was constrained to a constant value and analyzed by the following equation (Eq. 3):3 Y=Et×kcat×X/(Km+X)

[2] = system: Nc1nc2c(c(=O)[nH]1)N=C(CNc1ccc(C(=O)N[C@@H](CCC(=O)O)C(=O)O)cc1)CN2; assay: purified protein, by the assay type; type: biochemical, E. coli; settings: other: varied substrate 1 to 200 µM, 25 °C
From the text: as §1

[3] = system: E. coli BL21(DE3) strain overexpressing DfrA1; assay: Antibacterial activity (MIC); type: cell-based; settings: Escherichia coli
[4] = system: E. coli JW0451 acrB mutant strain; assay: microbe, parasite or virus in culture; type: cell-based; settings: for MIC: w/o SMX, 80% inhibition of growth, 18 to 20 hours, 37°C
Protocol: (§2) Preparation, handling of cultures and the antibiotic susceptibility testing was performed according to CLSI guidelines. […] The compounds at the highest concentrations alone and paired with Sulfamethoxazole (1:19 w/w ratio) were then added to the first well before being serially diluted (2-fold) throughout the plate, leaving the last well with broth only (negative growth control). Next, 50 μl of the inoculum was added to each well.

[5] = system: E. coli BL21(DE3) strain overexpressing EcDHFR wt; assay: Antibacterial activity (MIC); type: cell-based; settings: Escherichia coli
[6] = system: E. coli BL21(DE3) strain overexpressing DfrA5; assay: Antibacterial activity (MIC); type: cell-based; settings: Escherichia coli
DfrA5 [7] = target: T1, DfrA5 (Escherichia coli, UniProt P11731); assay: biochemical; set-up: species or system E. coli
Protocol: (§3) The assay was performed at room temperature using the Shimadzu UV/visible spectrophotometer. A standard reaction buffer contained 20 mM TES, pH 7.0, 50 mM KCl, 10 mM β-mercapthoethanol, 0.5 mM EDTA, and 1 mg/ml BSA. […] All measurements were performed in triplicate, from at least two independent experiments.

EcDHFR D27E/L28Q [8] = target: T2, EcDHFR D27E/L28Q (Escherichia coli, UniProt P0ABQ4, D27E/L28Q); assay: Steady-state kinetic measurements; type: biochemical; settings: varied substrate 1 to 200 µM, 25 °C
T2 construct: using E. coli DHFR template previously synthesized by GeneScript; made in house; host or cells: E. coli BL21(DE3)
T2 sequence (P0ABQ4 1-159 D27E/L28Q): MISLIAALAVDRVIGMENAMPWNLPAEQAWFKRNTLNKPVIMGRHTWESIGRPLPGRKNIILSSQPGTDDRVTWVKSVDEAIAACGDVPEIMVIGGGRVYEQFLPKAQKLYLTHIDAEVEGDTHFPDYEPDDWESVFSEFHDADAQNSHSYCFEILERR
From the text: as §1

EcDHFR L28Q [9] = target: T3, EcDHFR L28Q (Escherichia coli, UniProt P0ABQ4, L28Q); assay: Steady-state kinetic measurements; type: biochemical; settings: varied substrate 1 to 200 µM, 25 °C
T3 construct: using E. coli DHFR template previously synthesized by GeneScript; made in house; host or cells: E. coli BL21(DE3)
T3 sequence (P0ABQ4 1-159 L28Q): T2 sequence (P0ABQ4 1-159 D27E/L28Q) with E27D
From the text: as §1

EcDHFR D27E [10] = target: T4, EcDHFR D27E (Escherichia coli, UniProt P0ABQ4, D27E); assay: Steady-state kinetic measurements; type: biochemical; settings: varied substrate 1 to 200 µM, 25 °C
T4 construct: using E. coli DHFR template previously synthesized by GeneScript; made in house; host or cells: E. coli BL21(DE3)
T4 sequence (P0ABQ4 1-159 D27E): T2 sequence (P0ABQ4 1-159 D27E/L28Q) with Q28L
From the text: as §1

E. coli DHFR (EcDHFR) = target: T5, E. coli DHFR (EcDHFR) (Escherichia coli, UniProt P0ABQ4); assay: biochemical
T5 construct: E. coli DHFR gene (UniProtKB:P0ABQ4) and dfrA1 gene (UniProtKB:A4GRC7) were synthesized and cloned in pET-41a (+) vector; made in house; host or cells: E. coli BL21(DE3)
Protocol: as §3

DfrA1 and DfrA5 = type: biochemical, E. coli; settings: range over DfrA1 and DfrA5
Protocol: as §3

EcDHFR D27E/L28Q [11] = target: T2, EcDHFR D27E/L28Q; assay: Enzyme inhibition assay (NADPH oxidation, 340 nm); type: biochemical
Protocol: as §3

EcDHFR L28Q [12] = target: T3, EcDHFR L28Q; assay: Enzyme inhibition assay (NADPH oxidation, 340 nm); type: biochemical
Protocol: as §3

EcDHFR D27E [13] = target: T4, EcDHFR D27E; assay: Enzyme inhibition assay (NADPH oxidation, 340 nm); type: biochemical
Protocol: as §3

DfrA1 = target: T6, DfrA1 (Escherichia coli, UniProt P00382); type: binding, E. coli
T6 construct: dfrA1 gene (UniProtKB:A4GRC7) were synthesized and cloned in pET-41a (+) vector; made in house; host or cells: E. coli BL21(DE3)
T6 sequence (P00382 1-157): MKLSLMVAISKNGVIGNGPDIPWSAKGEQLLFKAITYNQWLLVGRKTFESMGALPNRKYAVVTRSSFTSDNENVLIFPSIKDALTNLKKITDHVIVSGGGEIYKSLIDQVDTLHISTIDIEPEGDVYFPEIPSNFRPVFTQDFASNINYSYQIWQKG
Protocol: (§4) In all, 200 µg of purified enzyme was preincubated for 18 h without and with a 10× molar excess of the ligand(s) (NADPH, TMP or PLA) in 20 mM Hepes 7.5, 100 mM KCl, 5% glycerol, ±2.0% DMSO and 2 mM DTT buffer. […] Changes in intrinsic fluorescence intensity (measured ratio of absorbance at 350 nm over 330 nm) from tryptophan residues were used to calculate derivatives using the evaluation features provided by the Tycho instrument.

DfrA5 [14] = target: T1, DfrA5; type: binding, E. coli; set-up: E. coli dfrA5 gene (UniProtKB:A0A4Y6L037) was synthesized and cloned in pET-24a (+) vector with the same restriction sites; 6xHis tag (C); made in house; host or cells: E. coli BL21(DE3)
Protocol: as §4, with “instrument. The inflection temperature (Ti) as a marker of protein structural integrity was determined by the first derivative of the signal (ratio of 350 nm/330 nm).” for “instrument.”

EcDHFR = target: T7, EcDHFR (Escherichia coli, UniProt P0ABQ4); type: binding
T7 construct: E. coli DHFR gene (UniProtKB:P0ABQ4) and dfrA1 gene (UniProtKB:A4GRC7) were synthesized and cloned in pET-41a (+) vector; made in house; host or cells: E. coli BL21(DE3)
Protocol: as §4

E. coli BW25113 = assay: microbe, parasite or virus in culture; type: cell-based; settings: for MIC: Escherichia coli, 80% inhibition of growth
Protocol: as §2

[15] = system: NC(=O)C1=CN([C@H]2O[C@H](COP(=O)(O)OP(=O)(O)OC[C@H]3O[C@@H](n4cnc5c(N)ncnc54)[C@H](OP(=O)(O)O)[C@@H]3O)[C@@H](O)[C@H]2O)C=CC1; assay: Steady-state kinetic measurements; type: biochemical, Escherichia coli; settings: other: varied substrate 1 to 200 µM, 25 °C
[16] = binary complex, 10× molar excess of ligand

DfrA5 (Escherichia coli)
Km [1]: 19.9 ± 6.1 µM | kcat [1]: 34.3 ± 3.3 s⁻¹ | kcat/Km [1]: 1.7e+06 ± 500000 M⁻¹ s⁻¹ | Km [2]: 24.2 ± 6.6 µM | kcat [2]: 31.4 ± 3.2 s⁻¹ | kcat/Km [2]: 1.3e+06 ± 400000 M⁻¹ s⁻¹

COc1cc(Cc2cnc(N)nc2N)cc(OC)c1OC [Trimethoprim, reference compound]
MIC ([3]; w/ SMX (1:19)): > 20 µg/mL | MIC ([3]; w/o SMX): > 20 µg/mL | MIC ([4]; Escherichia coli): 0.04 µg/mL (≈ 0.138 µM) | MIC ([5]; w/ SMX (1:19)): 0.078 µg/mL (≈ 0.269 µM) | MIC ([5]; w/o SMX): 0.625 µg/mL (≈ 2.15 µM) | MIC ([6]; w/ SMX (1:19)): > 20 µg/mL | MIC ([6]; w/o SMX): > 20 µg/mL

CN(Cc1cnc2nc(N)nc(N)c2n1)c1ccc(C(=O)N[C@@H](CCC(=O)O)C(=O)O)cc1 [Methotrexate, reference compound]
Ki (DfrA5 [7]): 0.579 ± 0.0738 µM

Nc1nc2c(c(=O)[nH]1)N=C(CNc1ccc(C(=O)N[C@@H](CCC(=O)O)C(=O)O)cc1)CN2 [DHF, dihydrofolate]
Km (EcDHFR D27E/L28Q [8]): 56.6 ± 8 µM | Km (EcDHFR L28Q [9]): 5.2 ± 1 µM | Km (EcDHFR D27E [10]): 15.4 ± 2.1 µM

CCc1nc(N)nc(N)c1C#CC(C)c1cc2c(c(-c3ccc(CN)cc3)c1)OCO2 (centres unmarked) [UCP1223]
Ki (E. coli DHFR (EcDHFR)): 0.00158 ± 0.00026 µM | Ki (DfrA5 [7]): 0.0168 ± 0.00029 µM | MIC ([3]; w/ SMX (1:19)): 20 µg/mL (≈ 48.1 µM) | MIC ([3]; w/o SMX): > 20 µg/mL | fold loss of activity against DfrA1 and DfrA5 compared to EcDHFR (DfrA1 and DfrA5): 10–14 fold | Ki (EcDHFR D27E/L28Q [11]): 0.187 ± 0.0055 µM | fold loss in affinities relative to EcDHFR (EcDHFR D27E/L28Q [11]; combinatorial mutant D27E/L28Q): 118 fold | Ki (EcDHFR L28Q [12]): 0.00737 ± 0.00072 µM | Ki (EcDHFR D27E [13]): 0.0128 ± 0.00056 µM | fold increase in Ki over EcDHFR (EcDHFR D27E [13]; D27E substitution): 8 fold | Ti (DfrA1; [16]): 58.5 ± 0.1 °C | Δ (Ti shift vs apo) (DfrA1; [16]): 8.7 °C | Ti (DfrA1; ternary complex, +NADPH): 71.2 ± 3.1 °C | Ti (DfrA5 [14]; [16]): 67.3 ± 1.0 °C | Δ (Ti shift vs apo) (DfrA5 [14]; [16]): 1.0 °C | Ti (DfrA5 [14]; ternary complex, +NADPH): 88.5 ± 0.2 °C | Ti 1 (EcDHFR; [16]): 68.5 ± 1.4 °C | Ti 2 (EcDHFR; [16]): 80.8 ± 0.2 °C | Δ1 (Ti shift vs apo) (EcDHFR; [16]): 18.9 °C | Δ2 (Ti shift vs apo) (EcDHFR; [16]): 20.6 °C | Ti 1 (EcDHFR; ternary complex, +NADPH): 78.9 ± 2.4 °C | Ti 2 (EcDHFR; ternary complex, +NADPH): 88.3 ± 0.5 °C | Δ1 (Ti shift vs apo) (EcDHFR; ternary complex, +NADPH): 29.3 °C | Fold difference in MIC (E. coli BW25113; BW25113 w/o SMX vs w/ SMX): 32 | MIC (E. coli BW25113; BW25113, w/ SMX (1:19)): 0.625 µg/mL (≈ 1.5 µM) | MIC (E. coli BW25113; BW25113, w/o SMX, 18 to 20 hours, 37°C): 20 µg/mL (≈ 48.1 µM) | Fold difference in MIC ([4]; BW25113 w/o SMX vs JW0451 w/o SMX): 32 | MIC ([4]; Escherichia coli): 0.625 µg/mL (≈ 1.5 µM) | MIC [4]: 1.25 µg/mL (≈ 3.01 µM) | MIC ([5]; w/ SMX (1:19)): 1.25 µg/mL (≈ 3.01 µM) | MIC ([5]; w/o SMX): 20 µg/mL (≈ 48.1 µM) | MIC ([6]; w/ SMX (1:19)): 10 µg/mL (≈ 24.1 µM) | MIC ([6]; w/o SMX): > 20 µg/mL

COc1cc(Cc2cnc(N)nc2N)c2c(c1OC)OC(C1CC1)C=C2 (centres unmarked) [Iclaprim, reference compound]
Ki (DfrA5 [7]): 0.099 ± 0.0139 µM

EcDHFR (Escherichia coli K-12)
Km [15]: 5.8 ± 0.8 µM | kcat/Km [15]: 600000 ± 70000 M⁻¹ s⁻¹
